# Measurements taken from article PMC6050662, “Lycorine inhibits glioblastoma multiforme growth through EGFR suppression” (Journal of Experimental & Clinical Cancer Research : CR, 2018).
# pKd: −log10 of the molar value.
# Molecular target: T1, EGFR (Homo sapiens, UniProt P00533)
# T1 construct: GST-tagged EGFR (696–1022), intracellular kinase domain
# Assay: SPR (Biacore T200, GST-EGFR captured by anti-GST on CM5 chip); also kinase assay (Kinase-Glo) IC50 about […]
# Type: binding
# T1 sequence (P00533 696-1022): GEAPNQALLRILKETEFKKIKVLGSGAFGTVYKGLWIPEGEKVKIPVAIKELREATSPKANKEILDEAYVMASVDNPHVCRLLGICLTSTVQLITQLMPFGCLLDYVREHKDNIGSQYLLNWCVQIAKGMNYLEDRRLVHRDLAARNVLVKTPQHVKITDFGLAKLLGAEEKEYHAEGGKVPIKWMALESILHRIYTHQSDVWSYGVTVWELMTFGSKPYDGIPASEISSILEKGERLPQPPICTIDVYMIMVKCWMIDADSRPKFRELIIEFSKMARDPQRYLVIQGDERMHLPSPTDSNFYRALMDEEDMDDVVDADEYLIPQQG
smiles,measurement,value
O[C@H]1[C@H]2c3cc4c(cc3CN3CCC(=C[C@@H]1O)[C@H]23)OCO4 [Lycorine],pKd,~5.44
